Assay: UV absorption (E1% 1 cm)
Type: physicochemical
Settings: at the λmax printed in Table 1 (290 nm fatty acids; 305 nm Homosalate, Octyl salicylate)
Text: Personal care composition comprising fatty acids, as obtained synthetically from Tung seed oil by aforementioned process, have good UV absorbing activity arising from the conjugated system of the fatty acids and is evident from its value of E1% lcm which is 1600 at 270 nm and 360 at 290 nm. In view of incorporation of the fatty acids in the personal care composition, not only the ingredients of the formulations are protected but also the skin and hair are protected from the ravages of solar radiation when the formulations are applied. […] The same is evident from the values of E1% lcm which is 360 at 290 nm (FIG. 2). UV B radiation of solar spectrum is the most damaging since it causes skin cancer.

E1%, 1 cm: 180
Structure (SMILES): CC1CC(OC(=O)c2ccccc2O)CC(C)(C)C1 (stereo not shown) [Homosalate]
